Molecular target: Endothelial lipase (EL) (Homo sapiens (Human), UniProt Q9Y5X9)
Test: Endothelial lipase (EL) enzymatic assay with fluorescent substrate A10070 in DMPG vesicles
Format: biochemical
Details: conditioned media from HT-1080 cells overexpressing endogenous EL; 20 min preincubation at 37° C.; read-out: HLE_EL_CRC IC50
Description: Endothelial lipase activity was measured using a fluorescent substrate, A10070, (Invitrogen, CA) doped into an artificial vesicle containing DMPG (Avanti Polar Lipids) as the excipient. Vesicles were prepared by combining 285 uL of 1 mM DMPG in a 1:1 mixture of MeOH and CHCl3 with 15 uL of 1 mM A10070 in a 1:1 mixture of MeOH and CHCl3. The mixture was dried under nitrogen and resuspended in 150 uL of 50 mM HEPES pH 8.0 buffer containing 100 mM NaCl and 0.2 mM EDTA. The sample was allowed to sit at rt for 15 min and then was sonicated 3×4 mins on ice with a Branson Sonicator using duty cycle 1. This preparation provides vesicles with a mole fraction of 0.05 for the FRET substrate.
The enzymatic assay was measured using white, opaque 96-well half area plates. Each well contained 60 uL of assay buffer (50 mM HEPES pH 8.0, 50 mM NaCl and 1 mM CaCl2) and 2 ul of a DMSO solution containing compound of interest. Conditioned media obtained from HT-1080 cells, which were transformed by RAGE technology (Athersys) to overexpress endogenous EL, was added and the reaction was allowed to incubate for 20 min at 37° C. with gentle agitation. The reaction was started by the addition of 20 uL of a 1:4 dilution of vesicles. The final total reaction volume was 100 uL. The reaction rates were measured on a Gemini plate reader with an excitation wavelength of 488 nm and a emission of 530 nm. Readings were taken every 20 seconds for 10 min with agitation between each reading. The slope of the linear portion of the readout was used to calculate the rate of the reaction.

Sequence of Endothelial lipase (EL) (Q9Y5X9 21-500): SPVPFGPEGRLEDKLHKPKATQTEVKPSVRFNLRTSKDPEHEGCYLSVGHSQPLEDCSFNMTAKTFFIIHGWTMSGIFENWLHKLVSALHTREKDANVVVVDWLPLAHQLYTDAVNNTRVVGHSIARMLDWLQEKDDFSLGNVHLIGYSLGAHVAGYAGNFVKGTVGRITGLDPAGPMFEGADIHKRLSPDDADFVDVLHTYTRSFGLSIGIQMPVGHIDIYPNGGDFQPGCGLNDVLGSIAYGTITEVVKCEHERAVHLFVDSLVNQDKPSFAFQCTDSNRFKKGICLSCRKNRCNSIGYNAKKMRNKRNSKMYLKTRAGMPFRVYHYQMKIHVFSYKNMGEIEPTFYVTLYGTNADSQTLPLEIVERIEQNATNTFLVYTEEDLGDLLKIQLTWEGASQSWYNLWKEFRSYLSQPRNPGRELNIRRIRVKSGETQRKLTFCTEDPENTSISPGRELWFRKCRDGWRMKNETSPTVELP

SMILES	IC50
Cn1ccc(C(=O)NCc2ccc(Oc3ccc(F)cc3)cc2)c(O)c1=O [Example 16, N-(4-(4-fluorophenoxy)benzyl)-3-hydroxy-1-methyl-2-oxo-1,2-dihydropyridine-4-carboxamide]	10 nM
Cn1ccc(C(=O)NCc2ccccc2N2CCCC2)c(O)c1=O [Example 31, 3-hydroxy-1-methyl-2-oxo-N-(2-(pyrrolidin-1-yl)benzyl)-1,2-dihydropyridine-4-carboxamide]	6450 nM
Cn1ccc(C(=O)NCc2cccc(-c3ccccc3)c2)c(O)c1=O [Example 21, N-(biphenyl-3-ylmethyl)-3-hydroxy-1-methyl-2-oxo-1,2-dihydropyridine-4-carboxamide]	17.9 nM
Cn1ccc(C(=O)NCc2ccccc2N2CCCCC2)c(O)c1=O [Example 29, 3-hydroxy-1-methyl-2-oxo-N-(2-(piperidin-1-yl)benzyl)-1,2-dihydropyridine-4-carboxamide]	6540 nM
Cn1c(C(F)(F)F)cc(C(=O)NCc2cccc(-c3ccc(Cl)cc3)c2)c(O)c1=O [Example 32, N-((4′-chlorobiphenyl-3-yl)methyl)-3-hydroxy-1-methyl-2-oxo-6-(trifluoromethyl)-1,2-dihydropyridine-4-carboxamide]	11.3 nM

More lines, now with the values ahead:

IC50	SMILES
11.1 nM	O=C(NCc1ccccc1-c1ccc(F)cc1)c1ccn(CC(F)(F)F)c(=O)c1O [Example 41, N-((4′-fluorobiphenyl-2-yl)methyl)-3-hydroxy-2-oxo-1-(2,2,2-trifluoroethyl)-1,2-dihydropyridine-4-]
692 nM	O=C(N[C@H]1CC[C@@H](c2ccccc2)CC1)c1ccn(CCCC(F)(F)F)c(=O)c1O [Example 39, 3-hydroxy-2-oxo-N-(cis-4-phenylcyclohexyl)-1-(4,4,4-trifluorobutyl)-1,2-dihydropyridine-4-carboxamide]
475 nM	Cn1c(Cl)cc(C(=O)NC2CCC(c3ccccc3)CC2)c(O)c1=O (stereo not shown) [Example 44, 6-chloro-3-hydroxy-1-methyl-2-oxo-N-(4-phenylcyclohexyl)-1,2-dihydropyridine-4-carboxamide]
4570 nM	O=C(NC1CCN(c2ccc(F)cc2)CC1)c1ccn(CC(F)(F)F)c(=O)c1O [Example 33, N-(1-(4-fluorophenyl)piperidin-4-yl)-3-hydroxy-2-oxo-1-(2,2,2-trifluoroethyl)-1,2-dihydropyridine-4-carboxamide]
352 nM	O=C(N[C@H]1CC[C@@H](c2ccccc2)CC1)c1ccn(CCC(F)(F)F)c(=O)c1O [Example 37, 3-hydroxy-2-oxo-N-(cis-4-phenylcyclohexyl)-1-(3,3,3-trifluoropropyl)-1,2-dihydropyridine-4-carboxamide]
